From patent publication US12415797B2, “Heterocyclic compound as CDK-HDAC double-channel inhibitor” (Hangzhou Innogate Pharma Co., Ltd., priority 2018, dated 2025)
Where two headings read alike, the source gives them in different places.

Columns and labels:
Assay type in all cases: biochemical
CDK4/CycD3 = CDK4/CycD3 (Homo sapiens (Human), UniProt P11802); test: CDK4/CycD3 kinase Mobility Shift Assay; conditions: CDK4/CycD3 10 nM, ATP Km 221 μM, 180 min, 28° C.
Experimental: (§1) In vitro enzymatic activity of the CDK isoforms CDK2/CycA2, CDK4/CycD3 and CDK6/cycD3 were measured using Mobility Shift Assay that monitors phosphorylation ratio of FAM labelled peptide (Peptide 18 for CDK2/CycA2, Peptide 8 for CDK4/CycD3). CDK2/CycA2 and CDK6/CycD3 were assayed under buffer conditions in the presence of 50 mM HEPES (pH 7.5), 10 mM MgCl2, 0.0015% Brij-35 and 2 mM dithiothreitol; CDK4/CycD3 with buffer condition of 20 mM HEPES (pH 7.5), 10 mM MgCl2, 0.01% Triton X-100 and 2 mM dithiothreitol. Prepare compounds to 50× of the final desired highest inhibitor concentration by 100% DMSO and serial dilution in 3-fold for total of 10 concentrations. For each isoform, dosage of enzyme and substrate are CDK2/CycA2 12 nM, ATP Km 39 μM; CDK4/CycD3 10 nM, ATP Km […]; CDK6/cycD3 15 nM, ATP Km 800 μM. After assay for 60 min, 180 min, 60 min respectively at 28° C., reactions were terminated with stop solution (50 mM EDTA, 0.015% Brij-35, 0.2% Coating Reagent #3 and 100 mM HEPES (pH 7.5)). Collect conversion on Caliper EZ Reader. IC50 values were calculated by fitting the dose-response curves with Xlfit excel add-in version 4.3.1.

HDAC-1 = HDAC-1 (Homo sapiens (Human), UniProt Q13547); test: HDAC-1 fluorogenic deacetylase assay (Ac-peptide-AMC); conditions: recombinant, full-length protein, Ac-peptide-AMC substrate; read-out: HDAC1 (IC50)
Sequence of HDAC-1 (Q13547 whole entry): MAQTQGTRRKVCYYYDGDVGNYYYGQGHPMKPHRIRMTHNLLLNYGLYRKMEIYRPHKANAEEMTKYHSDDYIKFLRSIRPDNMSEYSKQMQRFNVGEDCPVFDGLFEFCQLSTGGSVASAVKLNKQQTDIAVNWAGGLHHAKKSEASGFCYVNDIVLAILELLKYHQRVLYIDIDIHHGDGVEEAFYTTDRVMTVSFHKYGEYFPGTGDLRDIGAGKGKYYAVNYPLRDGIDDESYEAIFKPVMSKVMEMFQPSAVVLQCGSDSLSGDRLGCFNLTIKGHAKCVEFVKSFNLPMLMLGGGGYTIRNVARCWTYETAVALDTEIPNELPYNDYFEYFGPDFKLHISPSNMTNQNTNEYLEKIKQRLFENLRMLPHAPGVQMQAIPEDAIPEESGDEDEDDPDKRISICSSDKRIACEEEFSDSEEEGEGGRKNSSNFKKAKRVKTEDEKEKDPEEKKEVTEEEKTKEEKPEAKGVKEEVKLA
Experimental: (§2) The inhibitory effect of compounds on HDAC-1 and HDAC-6 function was determined in vitro using an optimized homogenous assay performed in 384-well plate format. In this assay, the recombinant, full-length HDAC-1, HDAC-2 or HDAC-6 protein (BPS Biosciences) was incubated with Ac-peptide-AMC with concentrations in the Km plot. Reactions were performed in Tris-based assay buffer and were followed for fluorogenic release of 7-amino-4-methylcoumarin from substrate upon deacetylase and trypsin enzymatic activity. Fluorescence measurements were obtained using a multilabel plate reader (Synergy MX with excitation at 355 nm and emission at 460 nm). Data were analyzed on a plate-by-plate basis for the linear range of fluorescence over time. Fit the data in GraphPad Prism V5.0 software to obtain IC50 values using equation (Y=Bottom+(Top-Bottom)/(1+10^((Log IC50−X)*Hill Slope), Y is % inhibition and X is compound concentration).

CDK6/cycD3 = CDK6/cycD3 (Homo sapiens (Human), UniProt Q00534); test: CDK6/cycD3 kinase Mobility Shift Assay; conditions: CDK6/cycD3 15 nM, ATP Km 800 μM, 60 min, 28° C.
Sequence of CDK6/cycD3 (Q00534 whole entry, species assumed): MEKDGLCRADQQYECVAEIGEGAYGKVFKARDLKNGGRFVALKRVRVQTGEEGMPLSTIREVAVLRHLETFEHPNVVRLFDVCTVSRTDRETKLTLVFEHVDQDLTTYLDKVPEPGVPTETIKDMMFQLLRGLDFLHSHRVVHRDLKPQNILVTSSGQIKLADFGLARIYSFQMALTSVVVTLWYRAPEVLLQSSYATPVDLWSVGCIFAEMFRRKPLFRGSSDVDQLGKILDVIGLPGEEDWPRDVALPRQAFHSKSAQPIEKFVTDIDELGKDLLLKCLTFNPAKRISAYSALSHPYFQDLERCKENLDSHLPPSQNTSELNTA
Sequence of CDK6/cycD3 (P30281 whole entry partner, species assumed): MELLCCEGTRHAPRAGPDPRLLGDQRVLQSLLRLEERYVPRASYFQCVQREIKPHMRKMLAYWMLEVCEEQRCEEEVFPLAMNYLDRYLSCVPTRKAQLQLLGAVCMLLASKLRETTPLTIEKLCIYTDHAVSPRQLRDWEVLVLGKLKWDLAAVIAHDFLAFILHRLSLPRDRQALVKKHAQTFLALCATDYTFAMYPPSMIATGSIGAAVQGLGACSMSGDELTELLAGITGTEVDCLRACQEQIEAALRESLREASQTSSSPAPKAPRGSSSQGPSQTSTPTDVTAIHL
Experimental: as §1

CDK2/CycA2 = CDK2/CycA2 (Homo sapiens (Human), UniProt P24941); test: CDK2/CycA2 kinase Mobility Shift Assay; conditions: CDK2/CycA2 12 nM, ATP Km 39 μM, 60 min, 28° C.
Experimental: as §1

HDAC-6 = HDAC-6 (Homo sapiens (Human), UniProt Q9UBN7); test: HDAC-6 fluorogenic deacetylase assay (Ac-peptide-AMC); conditions: read-out: HDAC6 (IC5)
Sequence of HDAC-6 (Q9UBN7 whole entry): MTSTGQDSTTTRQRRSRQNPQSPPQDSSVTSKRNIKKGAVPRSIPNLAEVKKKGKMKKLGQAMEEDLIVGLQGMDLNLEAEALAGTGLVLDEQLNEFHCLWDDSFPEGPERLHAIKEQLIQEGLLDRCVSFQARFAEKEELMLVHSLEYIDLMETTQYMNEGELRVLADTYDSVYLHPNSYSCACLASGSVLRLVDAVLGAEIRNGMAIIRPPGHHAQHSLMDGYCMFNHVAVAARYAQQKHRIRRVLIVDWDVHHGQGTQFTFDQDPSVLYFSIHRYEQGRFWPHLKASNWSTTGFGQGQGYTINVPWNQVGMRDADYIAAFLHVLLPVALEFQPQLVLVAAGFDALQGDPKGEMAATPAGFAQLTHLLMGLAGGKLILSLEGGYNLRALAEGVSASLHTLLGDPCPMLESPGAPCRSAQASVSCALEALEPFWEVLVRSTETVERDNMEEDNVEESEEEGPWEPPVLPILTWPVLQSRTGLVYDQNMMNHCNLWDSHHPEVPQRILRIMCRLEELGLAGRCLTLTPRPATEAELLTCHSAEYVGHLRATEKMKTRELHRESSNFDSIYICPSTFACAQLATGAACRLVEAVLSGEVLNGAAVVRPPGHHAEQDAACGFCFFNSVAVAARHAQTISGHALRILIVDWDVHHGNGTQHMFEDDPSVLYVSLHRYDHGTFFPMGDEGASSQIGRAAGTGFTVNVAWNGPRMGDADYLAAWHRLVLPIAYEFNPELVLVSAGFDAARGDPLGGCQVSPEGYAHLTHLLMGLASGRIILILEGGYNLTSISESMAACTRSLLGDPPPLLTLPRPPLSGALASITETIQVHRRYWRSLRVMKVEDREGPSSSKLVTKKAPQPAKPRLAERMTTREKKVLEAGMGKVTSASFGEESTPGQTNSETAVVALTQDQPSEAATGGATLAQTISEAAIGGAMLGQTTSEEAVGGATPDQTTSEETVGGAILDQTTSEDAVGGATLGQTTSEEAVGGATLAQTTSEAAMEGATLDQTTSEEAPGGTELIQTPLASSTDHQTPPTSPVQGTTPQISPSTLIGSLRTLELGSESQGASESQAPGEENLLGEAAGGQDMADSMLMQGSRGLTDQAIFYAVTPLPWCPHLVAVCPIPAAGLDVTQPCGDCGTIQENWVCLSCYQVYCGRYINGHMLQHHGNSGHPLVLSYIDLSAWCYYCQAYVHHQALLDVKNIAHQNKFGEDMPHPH
Experimental: as §2

[1] = recombinant, full-length protein, Ac-peptide-AMC substrate

Sequence of CDK4/CycD3 (P11802 whole entry, species assumed, canonical isoform): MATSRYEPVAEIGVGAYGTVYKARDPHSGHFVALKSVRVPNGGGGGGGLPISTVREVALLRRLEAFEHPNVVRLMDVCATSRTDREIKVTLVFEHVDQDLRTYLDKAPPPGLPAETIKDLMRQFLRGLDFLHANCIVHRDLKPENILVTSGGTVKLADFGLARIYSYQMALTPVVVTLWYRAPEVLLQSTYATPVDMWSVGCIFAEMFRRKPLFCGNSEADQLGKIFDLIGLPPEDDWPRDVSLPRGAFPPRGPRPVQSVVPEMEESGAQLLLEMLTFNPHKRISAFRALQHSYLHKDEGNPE
Sequence of CDK4/CycD3 (P30281 whole entry partner, species assumed, canonical isoform): as the sequence (P30281 whole entry partner, species assumed) above

| Structure (SMILES) | IC50 (CDK4/CycD3) | IC50 (HDAC-1) | IC50 (CDK6/cycD3) | IC50 (CDK2/CycA2) | IC50 (HDAC-6; [1]) | IC50 (HDAC-6) |
| --- | --- | --- | --- | --- | --- | --- |
| Cc1nc2c(F)cc(-c3nc(Nc4ccc(N5CCN(CCCCC(=O)NO)CC5)cn4)ncc3F)cc2n1C(C)C [Compound 13, 5-(4-(6-((5-fluoro-4-(4-fluoro-1-isopropyl-2-methyl-1H-benzo[d]imidazol-6-yl)pyrimidin-2-yl)amino)pyridin-3-yl)piperazin-1-yl)-N-hydroxypentanamide] | < 10 nM | ≥ 1000 nM | < 10 nM | 10 to 100 nM | 10 to 100 nM | – |
| Cc1nc2c(F)cc(-c3nc(Nc4ccc(N5CCC(C(=O)NO)CC5)cn4)ncc3F)cc2n1C(C)C [Compound 15, 1-(6-((5-fluoro-4-(4-fluoro-1-isopropyl-2-methyl-1H-benzo[d]imidazol-6-yl)pyrimidin-2-yl)amino)pyridin-3-yl)-N-hydroxypiperidine-4-carboxamide] | < 10 nM | ≥ 1000 nM | 10 to 100 nM | 10 to 100 nM | 100 to 500 nM | – |
| Cc1nc2c(F)cc(-c3nc(Nc4ccc(N5CCN(CCC(=O)NO)CC5)cn4)ncc3F)cc2n1C(C)C [Compound 14, 3-(4-(6-((5-fluoro-4-(4-fluoro-1-isopropyl-2-methyl-1H-benzo[d]imidazol-6-yl)pyrimidin-2-yl)amino)pyridin-3-yl)piperazin-1-yl)-N-hydroxypropanamide] | < 10 nM | ≥ 1000 nM | 10 to 100 nM | 10 to 100 nM | 500 to 1000 nM | – |
| Cc1nc2c(F)cc(-c3nc(Nc4ccc(C#CC(=O)NO)cn4)ncc3F)cc2n1C(C)C [Compound 17, 3-(6-((5-fluoro-4-(4-fluoro-1-isopropyl-2-methyl-1H-benzo[d]imidazol-6-yl)pyrimidin-2-yl)amino)pyridin-3-yl)-N-hydroxypropiolamide] | < 10 nM | – | – | – | – | – |
| Cc1nc2c(F)cc(-c3nc(Nc4ccc(/C=C/C(=O)NO)cn4)ncc3F)cc2n1C(C)C [Compound 5, (E)-3-(6-((5-fluoro-4-(4-fluoro-1-isopropyl-2-methyl-1H-benzo[d]imidazol-6-yl)pyrimidin-2-yl)amino)pyridin-3-yl)-N-hydroxyacrylamide] | < 10 nM | ≥ 1000 nM | 100 to 500 nM | 10 to 100 nM | 10 to 100 nM | – |
| Cc1nc2c(F)cc(-c3nc(Nc4ccc(C(=O)NO)nc4)ncc3F)cc2n1C(C)C [Compound 11, 5-((5-fluoro-4-(4-fluoro-1-isopropyl-2-methyl-1H-benzo[d]imidazol-6-yl)pyrimidin-2-yl)amino)-N-hydroxypicolinamide] | < 10 nM | ≥ 1000 nM | 10 to 100 nM | < 10 nM | ≥ 1000 nM | – |
| Cc1nc2c(F)cc(-c3nc(Nc4ccc(N5CCN(C(=O)CCCCCCC(=O)NO)CC5)cn4)ncc3F)cc2n1C(C)C [Compound 10, 8-(4-(6-((5-fluoro-4-(4-fluoro-1-isopropyl-2-methyl-1H-benzo[d]imidazol-6-yl)pyrimidin-2-yl)amino)pyridin-3-yl)piperazin-1-yl)-N-hydroxy-8-oxooctanamide] | < 10 nM | 100 to 500 nM | < 10 nM | 10 to 100 nM | – | < 10 nM |
| Cc1nc2c(F)cc(-c3nc(Nc4cc(C(=O)NO)ccn4)ncc3F)cc2n1C(C)C [Compound 12, 2-((5-fluoro-4-(4-fluoro-1-isopropyl-2-methyl-1H-benzo[d]imidazol-6-yl)pyrimidin-2-yl)amino)-N-hydroxyisonicotinamide] | 10 to 100 nM | 100 to 500 nM | ≥ 1000 nM | 10 to 100 nM | 10 to 100 nM | – |
| Cc1nc2c(F)cc(-c3nc(Nc4ccc(N5CCN(Cc6ccc(C(=O)NO)cc6)CC5)cn4)ncc3F)cc2n1C(C)C [Compound 8, 4-((4-(6-((5-fluoro-4-(4-fluoro-1-isopropyl-2-methyl-1H-benzo[d]imidazol-6-yl)pyrimidin-2-yl)amino)pyridin-3-yl)piperazin-1-yl)methyl)-N-hydroxybenzamide] | < 10 nM | 10 to 100 nM | 10 to 100 nM | 10 to 100 nM | – | < 10 nM |
| Cc1nc2c(F)cc(-c3nc(Nc4ccc(N(C)Cc5ccc(C(=O)NO)cc5)cn4)ncc3F)cc2n1C(C)C [Compound 6, 4-(((6-((5-fluoro-4-(4-fluoro-1-isopropyl-2-methyl-1H-benzo[d]imidazol-6-yl)pyrimidin-2-yl)amino)pyridin-3-yl)(methyl)amino)methyl)-N-hydroxybenzamide] | < 10 nM | 100 to 500 nM | 10 to 100 nM | < 10 nM | 10 to 100 nM | – |
| Cc1nc2c(F)cc(-c3nc(Nc4ccc(N(C)CCCCCCC(=O)NO)cn4)ncc3F)cc2n1C(C)C [Compound 3, 7-((6-((5-fluoro-4-(4-fluoro-1-isopropyl-2-methyl-1H-benzo[d]imidazol-6-yl)pyrimidin-2-yl)amino)pyridin-3-yl)(methyl)amino)-N-hydroxyheptanamide] | < 10 nM | 10 to 100 nM | 10 to 100 nM | 10 to 100 nM | 10 to 100 nM | – |
| Cc1nc2c(F)cc(-c3nc(Nc4ccc(CN5CCN(CCCCCCC(=O)NO)CC5)cn4)ncc3F)cc2n1C(C)C [Compound 1, 7-(4-((6-((5-fluoro-4-(4-fluoro-1-isopropyl-2-methyl-1H-benzo[d]imidazol-6-yl)pyrimidin-2-yl)amino)pyridin-3-yl)methyl)piperazin-1-yl)-N-hydroxyheptanamide] | < 10 nM | 100 to 500 nM | 10 to 100 nM | 10 to 100 nM | 10 to 100 nM | – |
| Cc1nc2c(F)cc(-c3nc(Nc4ccc(N(C)Cc5ccc(/C=C/C(=O)NO)cc5)cn4)ncc3F)cc2n1C(C)C [Compound 7, (E)-3-(4-(((6-((5-fluoro-4-(4-fluoro-1-isopropyl-2-methyl-1H-benzo[d]imidazol-6-yl)pyrimidin-2-yl)amino)pyridin-3-yl)(methyl)amino)methyl)phenyl)-N-hydroxyacrylamide] | 10 to 100 nM | 100 to 500 nM | 500 to 1000 nM | 100 to 500 nM | 10 to 100 nM | – |
| Cc1nc2c(F)cc(-c3nc(Nc4ccc(C(=O)NO)cn4)ncc3F)cc2n1C(C)C [Compound 4, 6-((5-fluoro-4-(4-fluoro-1-isopropyl-2-methyl-1H-benzo[d]imidazol-6-yl)pyrimidin-2-yl)amino)-N-hydroxynicotinamide] | < 10 nM | 100 to 500 nM | 100 to 500 nM | 100 to 500 nM | – | < 10 nM |
| Cc1nc2c(F)cc(-c3nc(Nc4ccc(N5CCN(CCCCCCC(=O)NO)CC5)cn4)ncc3F)cc2n1C(C)C [Compound 9, 7-(4-(6-((5-fluoro-4-(4-fluoro-1-isopropyl-2-methyl-1H-benzo[d]imidazol-6-yl)pyrimidin-2-yl)amino)pyridin-3-yl)piperazin-1-yl)-N-hydroxyheptanamide] | < 10 nM | ≥ 1000 nM | 10 to 100 nM | 10 to 100 nM | – | < 10 nM |
| Cc1nc2c(F)cc(-c3nc(Nc4ccc(-c5ccc(C(=O)NO)cn5)cn4)ncc3F)cc2n1C(C)C [Compound 16, 6′-((5-fluoro-4-(4-fluoro-1-isopropyl-2-methyl-1H-benzo[d]imidazol-6-yl)pyrimidin-2-yl)amino)-N-hydroxy-[2,3′-bipyridine]-5-carboxamide] | < 10 nM | ≥ 1000 nM | 10 to 100 nM | < 10 nM | 100 to 500 nM | – |
| Cc1nc2c(F)cc(-c3nc(Nc4ccc(N(C)CCN(C)c5ncc(C(=O)NO)cn5)cn4)ncc3F)cc2n1C(C)C [Compound 2, 2-((2-((6-((5-fluoro-4-(4-fluoro-1-isopropyl-2-methyl-1H-benzo[d]imidazol-6-yl)pyrimidin-2-yl)amino)pyridin-3-yl)(methyl)amino)ethyl)(methyl)amino)-N-hydroxypyrimidine-5-carboxamide] | < 10 nM | < 10 nM | 10 to 100 nM | 100 to 500 nM | 10 to 100 nM | – |
